According to doi:10.1101/2021.08.02.454818v1 (biorxiv, 2021):

Biological target: T1, CdRelQ (Clostridioides difficile, UniProt A0A9R0BI07)
T1 sequence (A0A9R0BI07 1-270): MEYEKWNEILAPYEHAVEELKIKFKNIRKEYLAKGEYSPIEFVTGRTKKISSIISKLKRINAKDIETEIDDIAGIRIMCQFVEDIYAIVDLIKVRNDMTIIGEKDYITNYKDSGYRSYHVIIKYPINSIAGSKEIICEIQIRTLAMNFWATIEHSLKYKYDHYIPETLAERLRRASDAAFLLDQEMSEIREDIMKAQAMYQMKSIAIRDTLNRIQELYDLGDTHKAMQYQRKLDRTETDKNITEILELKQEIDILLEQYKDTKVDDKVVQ
Assay: isothermal titration calorimetry, single-binding-site model

Compound | Kd
Nc1nc2c(ncn2[C@@H]2O[C@H](COP(=O)(O)OP(=O)(O)OP(=O)(O)O)[C@@H](O)[C@H]2O)c(=O)[nH]1 [GTP] | 20.5 µM
Nc1nc2c(ncn2[C@@H]2O[C@H](COP(=O)(O)OP(=O)(O)O)[C@@H](O)[C@H]2O)c(=O)[nH]1 [GDP] | 490 µM
